Test results as given in patent US12404241B2 (Celgene Corporation, priority 2018, dated 2025).
Counter-ions that a name gives are not always drawn.

Target: T1, AR (Homo sapiens, UniProt P10275)
T1 construct: endogenous in cells; host or cells: VCaP cells
T1 sequence (P10275 1-920): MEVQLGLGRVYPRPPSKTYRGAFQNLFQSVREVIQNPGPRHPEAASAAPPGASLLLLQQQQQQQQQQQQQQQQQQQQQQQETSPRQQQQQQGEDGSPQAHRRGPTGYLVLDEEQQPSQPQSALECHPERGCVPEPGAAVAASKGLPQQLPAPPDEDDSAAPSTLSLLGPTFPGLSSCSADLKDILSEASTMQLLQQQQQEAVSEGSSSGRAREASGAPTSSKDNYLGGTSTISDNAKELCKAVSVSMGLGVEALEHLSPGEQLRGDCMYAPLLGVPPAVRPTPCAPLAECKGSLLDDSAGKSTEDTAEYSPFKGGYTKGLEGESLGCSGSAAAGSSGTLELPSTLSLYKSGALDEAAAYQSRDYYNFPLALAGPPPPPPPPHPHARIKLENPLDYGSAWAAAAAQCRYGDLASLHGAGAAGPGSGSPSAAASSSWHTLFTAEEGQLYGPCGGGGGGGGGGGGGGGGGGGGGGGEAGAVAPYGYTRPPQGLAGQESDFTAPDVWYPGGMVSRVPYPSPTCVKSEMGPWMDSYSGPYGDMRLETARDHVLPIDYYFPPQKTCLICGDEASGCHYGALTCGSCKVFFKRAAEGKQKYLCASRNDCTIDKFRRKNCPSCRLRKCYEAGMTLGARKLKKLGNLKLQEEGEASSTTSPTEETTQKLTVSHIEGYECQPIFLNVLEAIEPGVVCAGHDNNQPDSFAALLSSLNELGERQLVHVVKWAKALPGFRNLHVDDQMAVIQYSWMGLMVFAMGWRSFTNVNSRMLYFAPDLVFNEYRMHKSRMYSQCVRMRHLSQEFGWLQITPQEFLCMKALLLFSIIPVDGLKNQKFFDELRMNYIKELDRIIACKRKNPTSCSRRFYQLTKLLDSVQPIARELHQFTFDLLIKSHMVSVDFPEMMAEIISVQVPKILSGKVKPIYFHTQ
Assay: VCAP AR Degradation Assay
Type: cell-based
Settings: for Y (AR degradation efficiency, % of DMSO control): class symbols *; for DC50: class symbols A-C, read-out: DC50
In short: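 Compounds were plated as 10-point 1:3 series reaching 5 μM final, then VCaP cells were seeded onto them and incubated 24 h at 37 °C. Cells were lysed cold, and total AR was measured by sandwich ELISA relative to 0.1% DMSO wells.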

C[C@@H](C(=O)Nc1cccc(NC2CCC(=O)NC2=O)c1)N1CCN(CCOc2ccc(N3C(=S)N(c4ccc(C#N)c(C(F)(F)F)c4)C(=O)C3(C)C)cc2Cl)CC1 (some centres unmarked) [Example 21, hydrochloride]
Y (AR degradation efficiency, % of DMSO control): * (0<Y<=25%) | DC50: < 100 nM

CCc1cc(N2C(=S)N(c3cnc(C#N)c(C(F)(F)F)c3)C(=O)C2(C)C)ccc1OCCN1CCN(CC(=O)Nc2cc(F)cc(NC3CCC(=O)NC3=O)c2)C(C)(C)C1 (centres unmarked) [Example 77, 2-(4-(2-(4-(3-(6-cyano-5-(trifluoromethyl)pyridin-3-yl)-5,5-dimethyl-4-oxo-2-thioxoimidazolidin-1-yl)-2-ethylphenoxy)ethyl)-2,2-dimethylpiperazin-1-yl)-N-(3-(2,6-dioxopiperidin-3-ylamino)-5-fluorophenyl)acetamide]
Y (AR degradation efficiency, % of DMSO control): * (0<Y<=25%) | DC50: < 100 nM

CCc1cc(N2C(=S)N(c3ccc(C#N)c(C(F)(F)F)c3)C(=O)C2(C)C)cnc1OCCN1CCN(CC(=O)Nc2cccc(NC3CCC(=O)NC3=O)c2)[C@H](C)C1 (stereo partly drawn) [Example 187, 2-((R)-4-(2-(5-(3-(4-cyano-3-(trifluoromethyl)phenyl)-5,5-dimethyl-4-oxo-2-thioxoimidazolidin-1-yl)-3-ethylpyridin-2-yloxy)ethyl)-2-methylpiperazin-1-yl)-N-(3-(2,6-dioxopiperidin-3-ylamino)phenyl)acetamide]
Y (AR degradation efficiency, % of DMSO control): * (0<Y<=25%) | DC50: < 100 nM

C[C@@H]1CN(CCOc2ccc(N3C(=S)N(c4cnc(C#N)c(C(F)(F)F)c4)C(=O)C34CCC4)cc2CCF)CCN1CC(=O)Nc1cc(Cl)cc(NC2CCC(=O)NC2=O)c1 (stereo partly drawn) [Example 142, N-(3-chloro-5-(2,6-dioxopiperidin-3-ylamino)phenyl)-2-((R)-4-(2-(4-(7-(6-cyano-5-(trifluoromethyl)pyridin-3-yl)-8-oxo-6-thioxo-5,7-diazaspiro[3.4]octan-5-yl)-2-(2-fluoroethyl)phenoxy)ethyl)-2-methylpiperazin-1-yl)acetamide]
Y (AR degradation efficiency, % of DMSO control): * (0<Y<=25%) | DC50: < 100 nM

CCc1cc(N2C(=S)N(c3cnc(C#N)c(C(F)(F)F)c3)C(=O)C2(C)C)ccc1OCCN1CCN(CC(=O)Nc2cccc(NC3CCC(=O)NC3=O)c2)CC1 (centres unmarked) [Example 22, hydrochloride]
Y (AR degradation efficiency, % of DMSO control): * (0<Y<=25%) | DC50: < 100 nM

CCc1cc(N2C(=S)N(c3ccc(C#N)c(C(F)(F)F)c3)C(=O)C2(C)C)ccc1OCCN1CCN(CC(=O)Nc2cc(F)cc(NC3CCC(=O)NC3=O)c2)C(C)(C)C1 (centres unmarked) [Example 73, 2-(4-(2-(4-(3-(4-cyano-3-(trifluoromethyl)phenyl)-5,5-dimethyl-4-oxo-2-thioxoimidazolidin-1-yl)-2-ethylphenoxy)ethyl)-2,2-dimethylpiperazin-1-yl)-N-(3-(2,6-dioxopiperidin-3-ylamino)-5-fluorophenyl)acetamide]
Y (AR degradation efficiency, % of DMSO control): * (0<Y<=25%) | DC50: < 100 nM

CCc1cc(N2C(=S)N(c3ccc(C#N)c(C(F)(F)F)c3)C(=O)C2(C)C)ccc1OCCN1CCN(CC(=O)Nc2cccc(N[C@H]3CCC(=O)NC3=O)c2)[C@H](C)C1 [Example 111, 2-((R)-4-(2-(4-(3-(4-cyano-3-(trifluoromethyl)phenyl)-5,5-dimethyl-4-oxo-2-thioxoimidazolidin-1-yl)-2-ethylphenoxy)ethyl)-2-methylpiperazin-1-yl)-N-(3-((S)-2,6-dioxopiperidin-3-ylamino)phenyl)acetamide]
Y (AR degradation efficiency, % of DMSO control): * (0<Y<=25%) | DC50: < 100 nM

CCc1cc(N2C(=S)N(c3ccc(C#N)c(C(F)(F)F)c3)C(=O)C2(C)C)c(C)cc1OCCN1C[C@@H](C)N(CC(=O)Nc2cccc(NC3CCC(=O)NC3=O)c2)[C@@H](C)C1 (stereo partly drawn) [Example 254, 2-((2S,6R)-4-(2-(4-(3-(4-cyano-3-(trifluoromethyl)phenyl)-5,5-dimethyl-4-oxo-2-thioxoimidazolidin-1-yl)-2-ethyl-5-methylphenoxy)ethyl)-2,6-dimethylpiperazin-1-yl)-N-(3-(2,6-dioxopiperidin-3-ylamino)phenyl)acetamide]
Y (AR degradation efficiency, % of DMSO control): * (0<Y<=25%) | DC50: < 100 nM

CCc1cc(N2C(=S)N(c3ccc(C#N)c(C(F)(F)F)c3)C(=O)C2(C)C)ccc1OCCN1CCN(CC(=O)Nc2cccc(NC3CCC(=O)NC3=O)c2)C[C@@H]1C (some centres unmarked) [Example 43, hydrochloride]
Y (AR degradation efficiency, % of DMSO control): * (0<Y<=25%) | DC50: < 100 nM

CC1(C)C(=O)N(c2ccc(C#N)c(C(F)(F)F)c2)C(=S)N1c1ccc(OCCN2CCN(CC(=O)Nc3cc(NC4CCC(=O)NC4=O)ccc3F)CC2)c(CCF)c1 (centres unmarked) [Example 141, 2-(4-(2-(4-(3-(4-cyano-3-(trifluoromethyl)phenyl)-5,5-dimethyl-4-oxo-2-thioxoimidazolidin-1-yl)-2-(2-fluoroethyl)phenoxy)ethyl)piperazin-1-yl)-N-(5-(2,6-dioxopiperidin-3-ylamino)-2-fluorophenyl)acetamide]
Y (AR degradation efficiency, % of DMSO control): * (0<Y<=25%) | DC50: < 100 nM

CC1(C)C(=O)N(c2cnc(C#N)c(C(F)(F)F)c2)C(=S)N1c1ccc(OCCN2CCN(CC(=O)Nc3cccc(NC4CCC(=O)NC4=O)c3)CC2)c(CCF)c1 (centres unmarked) [Example 161, 2-(4-(2-(4-(3-(6-cyano-5-(trifluoromethyl)pyridin-3-yl)-5,5-dimethyl-4-oxo-2-thioxoimidazolidin-1-yl)-2-(2-fluoroethyl)phenoxy)ethyl)piperazin-1-yl)-N-(3-(2,6-dioxopiperidin-3-ylamino)phenyl)acetamide]
Y (AR degradation efficiency, % of DMSO control): * (0<Y<=25%) | DC50: < 100 nM

CC1(C)C(=O)N(c2ccc(C#N)c(C(F)(F)F)c2)C(=S)N1c1ccc(OCCN2CCN(CC(=O)Nc3cc(F)cc(NC4CCC(=O)NC4=O)c3)CC2)c(F)c1 (centres unmarked) [Example 19, formate]
Y (AR degradation efficiency, % of DMSO control): * (0<Y<=25%) | DC50: < 100 nM

CCc1cc(N2C(=S)N(c3cnc(C#N)c(C(F)(F)F)c3)C(=O)C2(C)C)ccc1OCCN1CCN(CC(=O)Nc2cc(NC3CCC(=O)NC3=O)cc(F)c2F)[C@H](C)C1 (stereo partly drawn) [Example 100, 2-((R)-4-(2-(4-(3-(6-cyano-5-(trifluoromethyl)pyridin-3-yl)-5,5-dimethyl-4-oxo-2-thioxoimidazolidin-1-yl)-2-ethylphenoxy)ethyl)-2-methylpiperazin-1-yl)-N-(5-(2,6-dioxopiperidin-3-ylamino)-2,3-difluorophenyl)acetamide]
Y (AR degradation efficiency, % of DMSO control): * (0<Y<=25%) | DC50: < 100 nM

C[C@@H]1CN(CCCc2ccc(N3C(=S)N(c4ccc(C#N)c(C(F)(F)F)c4)C(=O)C3(C)C)cc2F)C[C@H](C)N1CC(=O)Nc1cccc(NC2CCC(=O)NC2=O)c1 (stereo partly drawn) [Example 287, 2-((2R,6S)-4-(3-(4-(3-(4-cyano-3-(trifluoromethyl)phenyl)-5,5-dimethyl-4-oxo-2-thioxoimidazolidin-1-yl)-2-fluorophenyl)propyl)-2,6-dimethylpiperazin-1-yl)-N-(3-(2,6-dioxopiperidin-3-ylamino)phenyl)acetamide]
Y (AR degradation efficiency, % of DMSO control): * (0<Y<=25%) | DC50: < 100 nM

CCc1cc(N2C(=S)N(c3ccc(C#N)c(C(F)(F)F)c3)C(=O)C2(C)C)cc(C)c1OCCN1C[C@@H](C)N(CC(=O)Nc2cccc(NC3CCC(=O)NC3=O)c2)[C@@H](C)C1 (stereo partly drawn) [Example 249, 2-((2R,6S)-4-(2-(4-(3-(4-cyano-3-(trifluoromethyl)phenyl)-5,5-dimethyl-4-oxo-2-thioxoimidazolidin-1-yl)-2-ethyl-6-methylphenoxy)ethyl)-2,6-dimethylpiperazin-1-yl)-N-(3-(2,6-dioxopiperidin-3-ylamino)phenyl)acetamide]
Y (AR degradation efficiency, % of DMSO control): *** (35%<Y<50%) | DC50: 100 to 500 nM

CCc1cc(N2C(=S)N(c3cnc(C#N)c(C(F)(F)F)c3)C(=O)C23CCC3)ccc1OCCN1CCN(CC(=O)Nc2cccc(NC3CCC(=O)NC3=O)c2)[C@H](C)C1 (stereo partly drawn) [Example 108, 2-((R)-4-(2-(4-(7-(6-cyano-5-(trifluoromethyl)pyridin-3-yl)-8-oxo-6-thioxo-5,7-diazaspiro[3.4]octan-5-yl)-2-ethylphenoxy)ethyl)-2-methylpiperazin-1-yl)-N-(3-(2,6-dioxopiperidin-3-ylamino)phenyl)acetamide]
Y (AR degradation efficiency, % of DMSO control): * (0<Y<=25%) | DC50: < 100 nM
